Bounds are passed on as bounds.

The target of the assay is T1, Autotaxin (Homo sapiens, UniProt Q13822).
T1 construct: purchased X-Chem
In words: Autotaxin LPC Cascade Assay. The assay is classed as biochemical. As to conditions: 5 nM autotaxin, 100 μM LPC, choline oxidase/HRP/Ampliflu Red fluorescence readout; read-out: IC50 ATX activity values, IC50. How it is done: Autotaxin LPC Cascade Assay
HA130 and Test Compounds:
Highest final concentration is […] for HA130 (Echelon, B-0701) and 30 μM for test compounds. Prepare a 1 mM stock of HA130 and a 3 mM stock of each compound in 100% DMSO. Perform a 1:3 serial dilution in DMSO (transfer 5 μl of compound to 10 μl of DMSO). Add 240 μl of buffer to generate a top working concentration of 40 µM (HA130) and 120 µM (test compound) in 4% DMSO.
Ampliflu Red—Prepare a stock of 5 mM from 100 mM in 100% DMSO. Further dilute to a working concentration of 400 μM in buffer (8% DMSO).
Together with compound this yields a 2% DMSO final concentration.
Choline Oxidase/HRP—0.8 U/ml CO and 8 U/ml HRP.
Add 5 μl of ATX and 5 μl of compound in a 384 well plate (Corning 3676). Incubate for 10 mins at RT. Add 5 μl of LPC and incubate for 1 hr on the plate shaker. Prepare the CO/HRP and AR prior to use. Add 2.5 μl of CO/HRP and follow with 2.5 μl AR. Note order of addition, CO/HRP mix before AR. Read fluorescence intensity (λex/λem: 530/590 nm) kinetically for 30 min at RT on the Tecan M1000.
What is called IC50 is the concentration that gives 50% inhibition. As for `Cc1cccc(C(=O)N[C@@H](C(=O)N2CCC(C)(Nc3ccc(C#N)cc3)CC2)C(C)C)c1F` [Example 1, (R)—N-(1-(4-(4-Cyanophenylamino)-4-methylpiperidin-1-yl)-3-methyl-1-oxobutan-2-yl)-2-fluoro-3-methylbenzamide], the IC50 lay in the range of 500 to 5000 nM. Take `Cc1cccc(C(=O)N[C@@H](C(=O)N2CCC(C)(Nc3cccc(C#N)c3)CC2)C(C)C)c1F` [Example 2, (R)—N-(1-(4-(3-Cyanophenylamino)-4-methylpiperidin-1-yl)-3-methyl-1-oxobutan-2-yl)-2-fluoro-3-methylbenzamide]: the IC50 fell in the range of 5000 to 10000 nM. The result for `Cc1cccc(C(=O)N[C@@H](C(=O)N2CCC(C)(Nc3ccc(S(C)(=O)=O)cc3)CC2)C(C)C)c1F` [Example 3, (R)-2-Fluoro-3-methyl-N-(3-methyl-1-(4-methyl-4-(4-(methylsulfonyl)phenylamino)piperidin-1-yl)-1-oxobutan-2-yl)benzamide] reads 500 to 5000 nM; that for `CCc1ccc(F)c(C(=O)N[C@@H](C(=O)N2CCC(C)(Nc3ccc(S(C)(=O)=O)cc3)CC2)C(C)C)c1` [Example 4, (R)-5-Ethyl-2-fluoro-N-(3-methyl-1-(4-methyl-4-(4-(methylsulfonyl)phenylamino)piperidin-1-yl)-1-oxobutan-2-yl)benzamide], 10 to 100 nM; that for `COc1ccc(F)c(C(=O)N[C@@H](C(=O)N2CCC(C)(Nc3ccc(S(C)(=O)=O)cc3)CC2)C(C)C)c1` [Example 5, (R)-2-Fluoro-5-methoxy-N-(3-methyl-1-(4-methyl-4-(4-(methylsulfonyl)phenylamino)piperidin-1-yl)-1-oxobutan-2-yl)benzamide], 500 to 5000 nM. Take `CC(C)[C@@H](NC(=O)c1cc(OC(F)(F)F)ccc1F)C(=O)N1CCC(C)(Nc2ccc(S(C)(=O)=O)cc2)CC1` [Example 6, (R)-2-Fluoro-N-(3-methyl-1-(4-methyl-4-(4-(methylsulfonyl)phenylamino)piperidin-1-yl)-1-oxobutan-2-yl)-5-(trifluoromethoxy)benzamide]: the concentration for half-maximal inhibition (IC50) lay within 10 to 100 nM. As for `CC(C)[C@@H](NC(=O)c1cccc(OC(F)(F)F)c1)C(=O)N1CCC(C)(Nc2ccccc2)CC1` [Example 7, (R)—N-(3-Methyl-1-(4-methyl-4-(phenylamino)piperidin-1-yl)-1-oxobutan-2-yl)-3-(trifluoromethoxy)benzamide], the IC50 was 500 to 5000 nM. Consider `COc1ccc(NC2(C)CCN(C(=O)[C@H](NC(=O)c3cccc(OC(F)(F)F)c3)C(C)C)CC2)cc1` [Example 8, (R)—N-(1-(4-((4-Methoxyphenyl)amino)-4-methylpiperidin-1-yl)-3-methyl-1-oxobutan-2-yl)-3-(trifluoromethoxy)benzamide], for which the 50% inhibitory concentration (IC50) lay in the range of 100 to 500 nM. For `CC(C)[C@@H](NC(=O)c1cccc(OC(F)(F)F)c1)C(=O)N1CCC(C)(Nc2ccc(C(=O)O)cc2)CC1` [Example 9, (R)-4-((4-Methyl-1-(3-methyl-2-(3-(trifluoromethoxy)benzamido)butanoyl)piperidin-4-yl)amino)benzoic acid], the IC50 was in the range of 100 to 500 nM. In the case of `CC(C)[C@@H](NC(=O)c1cc(OC(F)(F)F)ccc1F)C(=O)N1CCC(C)(Nc2ccccc2)CC1` [Example 10, (R)-2-Fluoro-N-(3-methyl-1-(4-methyl-4-(phenylamino)piperidin-1-yl)-1-oxobutan-2-yl)-5-(trifluoromethoxy)benzamide], the IC50 was in the range of 100 to 500 nM. Take `CC(C)[C@@H](NC(=O)c1cc(OC(F)(F)F)ccc1F)C(=O)N1CCC(C)(Nc2ccc(C(=O)O)cc2)CC1` [Example 11, (R)-4-((1-(2-(2-Fluoro-5-(trifluoromethoxy)benzamido)-3-methylbutanoyl)-4-methylpiperidin-4-yl)amino)benzoic acic]: the IC50 was in the range of 100 to 500 nM. `COc1ccc(NC2(C)CCN(C(=O)[C@H](NC(=O)c3cc(OC(F)(F)F)ccc3F)C(C)C)CC2)cc1` [Example 12, (R)-2-Fluoro-N-(1-(4-((4-methoxyphenyl)amino)-4-methylpiperidin-1-yl)-3-methyl-1-oxobutan-2-yl)-5-(trifluoromethoxy)benzamide]: the 50% inhibitory concentration (IC50) is 100 to 500 nM. Under `CC1(Nc2ccc(S(C)(=O)=O)cc2)CCN(C(=O)[C@H](NC(=O)c2cc(OC(F)(F)F)ccc2F)C2CC2)CC1` [Example 13, (R)—N-(1-Cyclopropyl-2-(4-methyl-4-((4-(methylsulfonyl)phenyl)amino)piperidin-1-yl)-2-oxoethyl)-2-fluoro-5-(trifluoromethoxy)benzamide] stands 100 to 500 nM; under `CNC(=O)C1(Oc2ccccc2)CCN(C(=O)[C@H](NC(=O)c2cccc(C)c2F)C(C)C)CC1` [Example 14, (R)-1-(2-(2-Fluoro-3-methylbenzamido)-3-methylbutanoyl)-N-methyl-4-phenoxypiperidine-4-carboxamide], 500 to 5000 nM.

Regarding `CCc1ccc(F)c(C(=O)N[C@@H](C(=O)N2CCC(Oc3ccc(S(C)(=O)=O)cc3)(C(=O)NC)CC2)C(C)C)c1` [Example 15, (R)-1-(2-(5-Ethyl-2-fluorobenzamido)-3-methylbutanoyl)-N-methyl-4-(4-(methylsulfonyl)phenoxy)piperidine-4-carboxamide], the half-maximal inhibitory concentration (IC50) is 500 to 5000 nM. The result for `CCc1ccc(F)c(C(=O)N[C@@H](C(=O)N2CCC(Oc3ccc(S(C)(=O)=O)cc3)(C(=O)N(C)C)CC2)C(C)C)c1` [Example 16, (R)-1-(2-(5-Ethyl-2-fluorobenzamido)-3-methylbutanoyl)-N,N-dimethyl-4-(4-(methylsulfonyl)phenoxy)piperidine-4-carboxamide] reads 500 to 5000 nM; that for `COCC1(Nc2ccccc2)CCN(C(=O)[C@H](NC(=O)c2cccc(C)c2)C(C)C)CC1` [Example 17, (R)—N-(1-(4-(Methoxymethyl)-4-(phenylamino)piperidin-1-yl)-3-methyl-1-oxobutan-2-yl)-3-methylbenzamide], not below 10000 nM. Consider `CCc1ccc(F)c(C(=O)N[C@@H](C(=O)N2CCC(C#N)(Nc3ccc(S(C)(=O)=O)cc3)CC2)C(C)C)c1` [Example 18, (R)—N-(1-(4-Cyano-4-(4-(methylsulfonyl)phenylamino)piperidin-1-yl)-3-methyl-1-oxobutan-2-yl)-5-ethyl-2-fluorobenzamide], for which the IC50 is 500 to 5000 nM. With `CC(=O)Nc1ccc(N(C)C2(C)CCN(C(=O)[C@H](NC(=O)c3cc(C(F)(F)F)ccc3F)C(C)C)CC2)cc1` [Example 19, (R)—N-(1-(4-(4-Acetamidophenyl(methyl)amino)-4-methylpiperidin-1-yl)-3-methyl-1-oxobutan-2-yl)-2-fluoro-5-(trifluoromethyl)benzamide], the IC50 is 100 to 500 nM.

On to `Cc1cccc(C(=O)N[C@@H](C(=O)N2CCC(C)(N(C)c3ccccc3)CC2)C(C)C)c1` [Example 20, (R)-3-Methyl-N-(3-methyl-1-(4-methyl-4-(methyl(phenyl)amino)piperidin-1-yl)-1-oxobutan-2-yl)benzamide], for which the IC50 fell in the range of 500 to 5000 nM. `CC(C)[C@@H](NC(=O)c1cc(C(F)(F)F)ccc1F)C(=O)N1CCC(C)(Nc2ccc(C(=O)O)cc2)CC1` [Example 21, (R)-4-(1-(2-(2-Fluoro-5-(trifluoromethyl)benzamido)-3-methylbutanoyl)-4-methylpiperidin-4-ylamino)benzoic acid]: the IC50 fell in the range of 100 to 500 nM.

The values above are taken from US20170037007A1, “SUBSTITUTED N-(2-(AMINO)-2OXOETHYL)BENZAMIDE INHIBITORS OF AUTOTAXIN AND THEIR PREPARATION AND USE IN THE TREATMENT OF LPA-DEPENDENT OR LPA-MEDIATED DISEASES” (X-Rx, Inc., priority 2014, published 2017).
